Experimental data from US20200188466A1, “COMPOSITIONS OF SCHISANDRA EXTRACTS AND METHODS THEREOF” (Reyoung Corporation, priority 2017, published 2020).
Like-named read-outs stand apart in the source and are kept apart here.

Assay: Plasma kinetic study of celastrol with and without Schisandrin A
Type: in vivo, Sprague Dawley rats
Conditions: rats; for Cmax / Tmax / AUC(0-t) / AUC(0-inf) / MRT last / MRT inf / half-life: male, Sprague Dawley, rat, plasma, po, 1.8 mg/kg; for AUC(0-t): read-out: AUC0→t of celastrol; for AUC(0-inf): read-out: AUC0→∞ of celastrol; for MRT last: read-out: MRT0→t of celastrol; for MRT inf: read-out: MRT0→∞ of celastrol; for half-life: read-out: T1/2 of celastrol (converted)
Protocol: 42 Male Sprague Dawley rats (weight, 210-250 g) were maintained on a 12-hour light/dark cycle with free access to water and lab chow for 10-14 h prior to the experiment. Rats were randomly divided into 7 groups (n=6 each) and groups 2-7 received 0 mg/kg, 5.5 mg/kg, and 11.0 mg/kg, 22.0 mg/kg, 44.0 mg/kg and 88.0 mg/kg of Schisandrin A in 1% CMC-Na (300-800 cps) via oral administration, respectively. After 5 minutes, all the groups received 1.8 mg/kg of celastrol in a solution of 2% DMSO-98% sterile water via oral administration.
After celastrol treatment, blood samples were collected from individual rat at 0.25 h, 0.5 h, 1 h, 2 h, 4 h, 8 h, 12 h, 24 h, 36 h, and 48 h, respectively. Plasma was separated by centrifugation at 8000 rpm for 6 minutes at 4° C. and kept at −80° C. until analysis. Plasma homogenate was injected into LC-MS/MS for analysis.

[1] = Group1, celastrol 1.8 mg/kg oral, no Schisandrin A dose stated
[2] = Group2, Schisandrin A 0 mg/kg oral 5 min before celastrol 1.8 mg/kg oral
[3] = Group3, Schisandrin A 5.5 mg/kg oral 5 min before celastrol 1.8 mg/kg oral
[4] = Group4, Schisandrin A 11.0 mg/kg oral 5 min before celastrol 1.8 mg/kg oral
[5] = Group5, Schisandrin A 22.0 mg/kg oral 5 min before celastrol 1.8 mg/kg oral
[6] = Group6, Schisandrin A 44.0 mg/kg oral 5 min before celastrol 1.8 mg/kg oral
[7] = Group7, Schisandrin A 88.0 mg/kg oral 5 min before celastrol 1.8 mg/kg oral

CC1=C(O)C(=O)C=C2C1=CC=C1[C@@]2(C)CC[C@@]2(C)[C@@H]3C[C@](C)(C(=O)O)CC[C@]3(C)CC[C@]12C [celastrol] showed a T1/2 of celastrol [1] of 10.07 ± 2.48 h, a Cmax [1] of 7.03 ± 2.65 ng/mL and a Tmax [1] of 5.33 ± 2.07 h. For the same compound, the AUC(0-t) [1] was 103 ± 28.2 ng·h/mL, the AUC(0-inf) [1] was 125 ± 22.4 ng·h/mL and the MRT last [1] was 12.1 ± 1.74 h. It also gave an MRT inf [1] of 12.1 ± 3.49 h, a Cmax [2] of 5.94 ± 1.38 ng/mL and a Tmax [2] of 4 h. The AUC(0-t) [2] was 93.2 ± 2.74 ng·h/mL, the AUC(0-inf) [2] was 107 ± 19.6 ng·h/mL and the MRT last [2] was 12 ± 1.82 h. It also gave an MRT inf [2] of 12 ± 2.33 h, a half-life [2] of 12.1 ± 1.77 h and a Cmax [3] of 7.13 ± 1.86 ng/mL. It also gave a Tmax [3] of 5.6 ± 3.58 h, an AUC(0-t) [3] of 117 ± 27.8 ng·h/mL and an AUC(0-inf) [3] of 124 ± 27.9 ng·h/mL. The MRT last [3] was 13.1 ± 2.27 h, the MRT inf [3] was 18.8 ± 8.57 h and the half-life [3] was 11.5 ± 5.18 h. It also gave a Cmax [4] of 7.08 ± 0.57 ng/mL, a Tmax [4] of 4 h and an AUC(0-t) [4] of 123 ± 20.1 ng·h/mL. It also gave an AUC(0-inf) [4] of 133 ± 20.1 ng·h/mL, an MRT last [4] of 12.9 ± 1.05 h and an MRT inf [4] of 15.7 ± 1.91 h. It also gave a half-life [4] of 9.1 ± 1.71 h, a Cmax [5] of 7.45 ± 2.72 ng/mL and a Tmax [5] of 9.33 ± 4.13 h. For the same compound, the AUC(0-t) [5] was 146 ± 48.4 ng·h/mL, the AUC(0-inf) [5] was 121 ± 31.7 ng·h/mL and the MRT last [5] was 14.2 ± 1.26 h. The MRT inf [5] was 16.9 ± 1.65 h, the half-life [5] was 10.3 ± 1.76 h and the Cmax [6] was 7.43 ± 3.47 ng/mL. It also gave a Tmax [6] of 10.7 ± 3.27 h, an AUC(0-t) [6] of 156 ± 68.5 ng·h/mL and an AUC(0-inf) [6] of 198 ± 94.4 ng·h/mL. The MRT last [6] was 14.9 ± 2.32 h, the MRT inf [6] was 33.1 ± 20.5 h and the half-life [6] was 23.8 ± 18 h. The Cmax [7] was 9.15 ± 6.48 ng/mL, the Tmax [7] was 6.67 ± 4.13 h and the AUC(0-t) [7] was 171 ± 99.1 ng·h/mL. For the same compound, the AUC(0-inf) [7] was 186 ± 108 ng·h/mL, the MRT last [7] was 14.2 ± 1.18 h and the MRT inf [7] was 16.7 ± 1.68 h. For the same compound, the half-life [7] was 9.29 ± 1.97 h.
